Data taken from patent US5789431A, “Naphthoquinone antitumor compound and method” (The University of North Carolina at Chapel Hill, priority 1996, dated 1998).

Columns and labels:
K-562 = assay: in vitro leukemia cell growth inhibition (NCI screen)
OVCAR-3 = assay: in vitro ovarian cancer cell growth inhibition (NCI screen)
HCT-116 = assay: in vitro colon cancer cell growth inhibition (NCI screen)
RXF-393 = assay: in vitro renal cancer cell growth inhibition (NCI screen)
SF-539 = assay: in vitro CNS cancer cell growth inhibition (NCI screen)
ACHN = assay: in vitro renal cancer cell growth inhibition (NCI screen)
SK-MEL-5 = assay: in vitro melanoma cell growth inhibition (NCI screen)
HCT-15 = assay: in vitro colon cancer cell growth inhibition (NCI screen)
XF-498 = assay: in vitro CNS cancer cell growth inhibition (NCI screen)
HL-60(TB) = assay: in vitro leukemia cell growth inhibition (NCI screen)
NCI-H522 = assay: in vitro non-small cell lung cancer cell growth inhibition (NCI screen)
UACC-62 = assay: in vitro melanoma cell growth inhibition (NCI screen)
COLO-205 = assay: in vitro colon cancer cell growth inhibition (NCI screen)
MALME-3M = assay: in vitro melanoma cell growth inhibition (NCI screen)
UO-31 = assay: in vitro renal cancer cell growth inhibition (NCI screen)
CCRF-CEM = assay: in vitro leukemia cell growth inhibition (NCI screen)
M19-MEL = assay: in vitro melanoma cell growth inhibition (NCI screen)
UACC-257 = assay: as above
LOX1MVI = assay: as above
DLD-1 = assay: in vitro colon cancer cell growth inhibition (NCI screen)
NCI-H460 = assay: in vitro non-small cell lung cancer cell growth inhibition (NCI screen)
HOP-92 = assay: as above
SR = assay: in vitro leukemia cell growth inhibition (NCI screen)
SK-MEL-2 = assay: in vitro melanoma cell growth inhibition (NCI screen)
SNB-75 = assay: in vitro CNS cancer cell growth inhibition (NCI screen)
NCI-H23 = assay: in vitro non-small cell lung cancer cell growth inhibition (NCI screen)
LXFL 529 = assay: as above
M14 = assay: in vitro melanoma cell growth inhibition (NCI screen)
MOLT-4 = assay: in vitro leukemia cell growth inhibition (NCI screen)
MCF7/ADR-RES = assay: in vitro breast cancer cell growth inhibition (NCI screen)
T-47D = assay: as above
human tumor cell lines = assay type: cell-based; conditions: Homo sapiens; cancer cell panel, general / most cell lines; read-out: logGI50 values in the cancer cell line panel (converted)
MDA-MB-435 = assay: in vitro breast cancer cell growth inhibition (NCI screen)
HT 29 = assay: in vitro colon cancer cell growth inhibition (NCI screen)
PC-3 = assay: in vitro prostate cancer cell growth inhibition (NCI screen)
OVCAR-8 = assay: in vitro ovarian cancer cell growth inhibition (NCI screen)
OVCAR-4 = assay: as above; conditions: OVACR-4

| Structure (SMILES) | cytotoxicity log GI50 (K-562) | cytotoxicity log GI50 (OVCAR-3) | cytotoxicity log GI50 (HCT-116) | cytotoxicity log GI50 (RXF-393) | cytotoxicity log GI50 (SF-539) | cytotoxicity log GI50 (SK-MEL-5) | cytotoxicity log GI50 (HCT-15) | cytotoxicity log GI50 (XF-498) | cytotoxicity log GI50 (HL-60(TB)) | cytotoxicity log GI50 (NCI-H522) | cytotoxicity log GI50 (UACC-62) | cytotoxicity log GI50 (COLO-205) | cytotoxicity log GI50 (MALME-3M) | cytotoxicity log GI50 (UO-31) | cytotoxicity log GI50 (M19-MEL) | cytotoxicity log GI50 (UACC-257) | cytotoxicity log GI50 (LOX1MVI) | cytotoxicity log GI50 (DLD-1) | cytotoxicity log GI50 (NCI-H460) | cytotoxicity log GI50 (SK-MEL-2) | further results |
| --- | --- | --- | --- | --- | --- | --- | --- | --- | --- | --- | --- | --- | --- | --- | --- | --- | --- | --- | --- | --- | --- |
| CC(=O)NC1=C(NCC(C)(C)C)C(=O)c2ccccc2C1=O [Compound 38] | -4.42 M | -4.26 M | -4.47 M | -4.43 M | -4.48 M | -4.40 M | -4.26 M | -4.59 M | -4.49 M | -4.72 M | -4.41 M | -4.41 M | -4.46 M | -4.33 M | -4.68 M | -4.30 M |  |  |  |  | cytotoxicity log GI50 (ACHN): -4.57 M; cytotoxicity log GI50 (CCRF-CEM): -4.42 M |
| CCC(CC)n1c(C)nc2c1C(=O)c1ccccc1C2=O [Compound 10] | -4.68 M | -4.59 M | -4.71 M |  |  | -4.80 M | -5.04 M |  | -4.97 M |  | -4.99 M | -4.57 M | -4.58 M | -4.71 M | -4.83 M | -4.62 M | -4.71 M | -4.61 M | -4.68 M | -4.56 M | cytotoxicity log GI50 (HOP-92): -4.65 M; cytotoxicity log GI50 (SR): -4.59 M; cytotoxicity log GI50 (SNB-75): -4.69 M; cytotoxicity log GI50 (NCI-H23): -4.67 M; cytotoxicity log GI50 (LXFL 529): -4.71 M |
| CCn1c(-c2ccccc2)nc2c1C(=O)c1ccccc1C2=O [Compound 25] |  | -5.23 M |  | -4.81 M |  | -4.95 M |  |  |  | -4.82 M |  | -4.85 M | -5.06 M |  |  | -5.41 M |  |  |  |  | cytotoxicity log GI50 (M14): -4.81 M; cytotoxicity log GI50 (MOLT-4): -4.83 M; cytotoxicity log GI50 (MCF7/ADR-RES): -4.88 M; cytotoxicity log GI50 (T-47D): -5.65 M; GI50 (human tumor cell lines): ~10 µM; cytotoxicity log GI50 (MDA-MB-435): -4.80 M; cytotoxicity log GI50 (HT 29): -5.05 M; cytotoxicity log GI50 (PC-3): -4.99 M; cytotoxicity log GI50 (OVCAR-8): -4.85 M; cytotoxicity log GI50 (SNB-75): -4.61 M; cytotoxicity log GI50 (OVCAR-4): -4.90 M |
| CCC(C)(C)n1c(C)nc2c1C(=O)c1ccccc1C2=O [Compound 12] | -4.87 M |  | -4.87 M | -4.68 M |  | -4.80 M | -4.64 M | -4.77 M | -5.12 M |  | -4.87 M | -4.77 M |  |  | -4.80 M |  | -4.71 M | -4.81 M | -4.91 M | -4.73 M | cytotoxicity log GI50 (MOLT-4): -4.73 M; cytotoxicity log GI50 (SR): -5.03 M; cytotoxicity log GI50 (LXFL 529): -4.86 M |
| Cc1nc2c(n1CC(C)C)C(=O)c1ccccc1C2=O [Compound 7] | -4.52 M | -4.60 M | -4.68 M |  | -4.61 M | -4.73 M |  |  | -4.64 M | -4.58 M | -4.68 M |  | -4.69 M | -4.58 M | -4.80 M | -4.75 M |  |  | -4.63 M | -4.59 M | cytotoxicity log GI50 (HOP-92): -4.99 M; cytotoxicity log GI50 (NCI-H23): -4.74 M |
